Test results as given in patent publication US20110178092A1, “HIV-1 Protease Inhibitors” (priority 2005, published 2011).

Biological target: T1, wild type HIV-1 protease (Q7K) (Human immunodeficiency virus type 1 group M subtype B, UniProt P04585, Q495K)
T1 construct: Wide type HIV-1 protease (Q7K)
Experiment: FRET HIV-1 protease inhibition assay, wild type
Format: biochemical
Details: not given
Description: Biological Evaluation of Selected Compounds of the Invention. HIV protease inhibitor activities were determined by fluorescence resonance energy transfer (FRET) method. […] Inhibitor binding dissociation constant (Ki value) was obtained by nonlinear regression fitting to the plot of initial velocity as a function of inhibitor concentration based on Morrison equation.
The energy transfer donor (EDANS) and acceptor (DABCYL) were labeled at its two ends respectively to perform FRET. Fluorescence measurements were carried out on PTI fluorescence spectrophotometer (Photon Technology International) at 30° C. Excitation and emission wavelengths were set at 340 nm and 490 nm, respectively. Each reaction was recorded for about 10 min. Wide type HIV-1 protease (Q7K) and its MDR mutants M1 (L10I, G48V, I54V, L63P, V82A), M2 (D30N, L63P, N88D), and M3 (L10I, L63P, A71V, G73S, I84V, L90M) were desalted through PD-10 columns (Amersham Biosciences). Sodium Acetate (20 mM, pH 5) was used as elution buffer. Apparent protease concentrations were around 50 nM estimated by UV spectrophotometer (Shimadzu) at 280 nm. All inhibitors were dissolved in DMSO and diluted to appropriate concentrations. Protease (2 μL) and inhibitor (2 μL) or DMSO were mixed and incubated for 20-30 min at room temperature before initialing substrate cleavage reaction. Throughout this work, 150 μL of 1 μM substrate was used. Substrate buffer is composite of 0.1 M sodium acetate, 1 M sodium chloride, 1 mM ethylenediaminetetraacetic acid (EDTA), 1 mM dithiothreitol (DTT), 2% dimethylsulfoxide (DMSO) and 1 mg/mL bovine serum albumin (BSA) with an adjusted pH 4.7. Inhibitor binding dissociation constant (Ki) was obtained by nonlinear regression fitting (GraFit 5, Erithacus software) to the plot of initial velocity as a function of inhibitor concentrations based on Morrison equation.

Point of comparison: `CC(=O)c1cccc(N2C[C@@H](C(=O)N[C@@H](Cc3ccccc3)[C@H](O)CN(CC(C)C)S(=O)(=O)c3ccc4c(c3)OCO4)OC2=O)c1` [26e, (5S)-3-(3-Acetylphenyl)-N-[(1S,2R)-3-[[(benzo-[1,3]-dioxole-5-sulfonyl)](isobutyl)amino]-1-benzyl-2-hydroxypropyl]-2-oxo-oxazolidine-S-carboxamide], Ki 0.006 nM. Against it:
- COc1ccc(S(=O)(=O)N(CC(C)C)C[C@@H](O)[C@H](Cc2ccccc2)NC(=O)[C@H]2CN(c3ccccc3)C(=O)O2)cc1 [20a, (5R)—N-[(1S,2R)-1-Benzyl-2-hydroxy-3-[isobutyl[(4-methoxyphenyl)sulfonyl]amino]-propyl]-2-oxo-3-phenyloxazolidine-S-carboxamide] — 1800-fold higher, 10.7 nM
- COc1ccc(S(=O)(=O)N(CC(C)C)C[C@@H](O)[C@H](Cc2ccccc2)NC(=O)[C@@H]2CN(c3cccc(F)c3)C(=O)O2)cc1 [21b, (5S)—N-[(1S,2R)-1-Benzyl-2-hydroxy-3-[isobutyl[(4-methoxyphenyl)sulfonyl]amino]-propyl]-3-(3-fluorophenyl)-2-oxo-oxazolidine-S-carboxamide] — 13-fold higher, 0.08 nM
- COc1ccc(S(=O)(=O)N(CC(C)C)C[C@@H](O)[C@H](Cc2ccccc2)NC(=O)[C@@H]2CN(c3cccc(C(F)(F)F)c3)C(=O)O2)cc1 [21d, (5S)—N-[(1S,2R)-1-Benzyl-2-hydroxy-3-[isobutyl[(4-methoxyphenyl)sulfonyl]amino]-propyl]-2-oxo-3-[(3-trifluoromethyl)phenyl]oxazolidine-S-carboxamide] — the same, 0.006 nM
- COc1ccc(S(=O)(=O)N(CC(C)C)C[C@@H](O)[C@H](Cc2ccccc2)NC(=O)[C@@H]2CN(c3cccc(OC)c3)C(=O)O2)cc1 [21g, (5S)—N-[(1S,2R)-1-Benzyl-2-hydroxy-3-[isobutyl[(4-methoxyphenyl)sulfonyl]-amino]propyl]-3-(3-methoxyphenyl)-2-oxo-oxazolidine-S-carboxamide] — 7.5-fold higher, 0.045 nM
- CC(C)CN(C[C@@H](O)[C@H](Cc1ccccc1)NC(=O)[C@H]1CN(c2ccccc2)C(=O)O1)S(=O)(=O)c1ccc(N)cc1 [24a, (5R)—N-[(1S,2R)-3-[[(4-Aminophenyl)sulfonyl](isobutyl)amino]-1-benzyl-2-hydroxypropyl]-2-oxo-3-phenyloxazolidine-S-carboxamide] — 6200-fold higher, 37.4 nM
- CC(=O)c1cccc(N2C[C@@H](C(=O)N[C@@H](Cc3ccccc3)[C@H](O)CN(CC(C)C)S(=O)(=O)c3ccc(N)cc3)OC2=O)c1 [25e, (5S)-3-(3-Acetylphenyl)-N-[(1S,2R)-3-[[(4-aminophenyl)sulfonyl](isobutyl)amino]-1-benzyl-2-hydroxypropyl]-2-oxo-oxazolidine-S-carboxamide] — 5.3-fold higher, 0.032 nM

Same assay, conditions: wild type HIV-1 protease (Q7K), FRET, in triplicate; read-out: Ki

Point of comparison: `COc1ccc(S(=O)(=O)N(CC(C)C)C[C@@H](O)[C@H](Cc2ccccc2)NC(=O)[C@@H]2CN(c3ccc(F)c(F)c3)C(=O)O2)cc1` [21c, (5S)—N-[(1S,2R)-1-Benzyl-2-hydroxy-3-[isobutyl[(4-methoxyphenyl)sulfonyl]amino]-propyl]-3-(3,4-difluorophenyl)-2-oxo-oxazolidinone-S-carboxamide], Ki 0.066 nM. Against it:
- COc1ccc(S(=O)(=O)N(CC(C)C)C[C@@H](O)[C@H](Cc2ccccc2)NC(=O)[C@@H]2CN(c3ccccc3)C(=O)O2)cc1 [21a, (5S)—N-[(1S,2R)-1-Benzyl-2-hydroxy-3-[isobutyl[(4-methoxyphenyl)sulfonyl]amino]propyl]-2-oxo-3-phenyloxazolidine-S-carboxamide] — 1.5-fold higher, 0.1 nM
- CC(C)CN(C[C@@H](O)[C@H](Cc1ccccc1)NC(=O)[C@@H]1CN(c2ccccc2)C(=O)O1)S(=O)(=O)c1ccc(N)cc1 [25a, (5S)—N-[(1S,2R)-3-[[(4-Aminophenyl)sulfonyl](isobutyl)amino]-1-benzyl-2-hydroxypropyl]-2-oxo-3-phenyloxazolidine-S-carboxamide] — 8-fold higher, 0.53 nM
- CC(C)CN(C[C@@H](O)[C@H](Cc1ccccc1)NC(=O)[C@@H]1CN(c2cccc(C(F)(F)F)c2)C(=O)O1)S(=O)(=O)c1ccc(N)cc1 [25d, (5S)—N-[(1S,2R)-3-[[(4-Aminophenyl)sulfonyl](isobutyl)amino]-1-benzyl-2-hydroxypropyl]-2-oxo-3-[(3-trifluoromethyl)phenyl]oxazolidine-S-carboxamide] — 1.6-fold lower, 0.042 nM
- CC(C)CN(C[C@@H](O)[C@H](Cc1ccccc1)NC(=O)[C@@H]1CN(c2cccc(C(F)(F)F)c2)C(=O)O1)S(=O)(=O)c1ccc2c(c1)OCO2 [26d, (5S)—N-[(1S,2R)-3-[[(Benzo-[1,3]-dioxole-S-sulfonyl)](isobutyl)amino]-1-benzyl-2-hydroxypropyl]-2-oxo-3-[(3-trifluoromethyl)phenyl]oxazolidine-S-carboxamide] — 4.1-fold lower, 0.016 nM
- CC(=O)c1ccc(N2C[C@@H](C(=O)N[C@@H](Cc3ccccc3)[C@H](O)CN(CC(C)C)S(=O)(=O)c3ccc4c(c3)OCO4)OC2=O)cc1 [26f, (5S)-3-(4-Acetylphenyl)-N-[(1S,2R)-3-[[(benzo-[1,3]-dioxole-S-sulfonyl)](isobutyl)-amino]-1-benzyl-2-hydroxypropyl]-2-oxo-oxazolidine-S-carboxamide] — 4.1-fold lower, 0.016 nM
- COc1ccc(S(=O)(=O)N(CC(C)C)C[C@@H](O)[C@H](Cc2ccccc2)NC(=O)[C@@H]2CN(c3cccc(F)c3)C(=O)O2)cc1F [27b, (5S)—N-[(1S,2R)-1-Benzyl-3-[[(3-fluoro-4-methoxyphenyl)sulfonyl](isobutyl)amino]-2-hydroxypropyl]-3-(3-fluorophenyl)-2-oxo-oxazolidine-S-carboxamide] — within 1.5-fold, 0.07 nM
- COc1ccc(S(=O)(=O)N(CC(C)C)C[C@@H](O)[C@H](Cc2ccccc2)NC(=O)[C@@H]2CN(c3ccc(F)c(F)c3)C(=O)O2)cc1F [27c, (5S)—N-[(1S,2R)-1-Benzyl-3-[[(3-fluoro-4-methoxyphenyl)sulfonyl](isobutyl)amino]-2-hydroxypropyl]-3-(3,4-difluorophenyl)-2-oxo-oxazolidine-S-carboxamide] — 5.2-fold higher, 0.343 nM
- COc1ccc(S(=O)(=O)N(CC(C)C)C[C@@H](O)[C@H](Cc2ccccc2)NC(=O)[C@@H]2CN(c3cccc(C(F)(F)F)c3)C(=O)O2)cc1F [27d, (5S)—N-[(1S,2R)-1-Benzyl-3-[[(3-fluoro-4-methoxyphenyl)sulfonyl](isobutyl)amino]-2-hydroxypropyl]-2-oxo-3-[(3-trifluoromethyl)phenyl)oxazolidine-S-carboxamide] — within 1.5-fold, 0.072 nM
- COc1ccc(S(=O)(=O)N(CC(C)C)C[C@@H](O)[C@H](Cc2ccccc2)NC(=O)[C@@H]2CN(c3ccc(C(C)=O)cc3)C(=O)O2)cc1F [27f, (S)-3-(4-Acetylphenyl)-N-[(1S,2R)-1-Benzyl-3-[[(3-fluoro-4-methoxyphenyl)-sulfonyl](isobutyl)amino]-2-hydroxypropyl]-2-oxo-oxazolidine-S-carboxamide] — within 1.5-fold, 0.08 nM

Same assay, conditions: wild type HIV-1 protease, qualitative statement

For `CC(C)CN(C[C@@H](O)[C@H](Cc1ccccc1)NC(=O)[C@@H]1CN(c2cccc(F)c2)C(=O)O1)S(=O)(=O)c1ccc(N)cc1` [25b, (5S)—N-[(1S,2R)-3-[[(4-Aminophenyl)sulfonyl](isobutyl)amino]-1-benzyl-2-hydroxypropyl]-3-(3-fluorophenyl)-2-oxo-oxazolidine-S-carboxamide], the “inhibitory activity against wild type HIV-1 protease (in words)” value (from here on “inhibitory activity”) was “relatively small improvement in activities compared to 25a”.
In the case of `CC(C)CN(C[C@@H](O)[C@H](Cc1ccccc1)NC(=O)[C@@H]1CN(c2ccc(F)c(F)c2)C(=O)O1)S(=O)(=O)c1ccc(N)cc1` [25c, (5S)—N-[(1S,2R)-3-[[(4-Aminophenyl)sulfonyl](isobutyl)amino]-1-benzyl-2-hydroxypropyl]-3-(3,4-difluorophenyl)-2-oxo-oxazolidine-S-carboxamide], the “inhibitory activity” value is reported as “relatively small improvement in activities compared to 25a”.
For `CC(=O)c1ccc(N2C[C@@H](C(=O)N[C@@H](Cc3ccccc3)[C@H](O)CN(CC(C)C)S(=O)(=O)c3ccc(N)cc3)OC2=O)cc1` [25f, (5S)-3-(4-Acetylphenyl)-N-[(1S,2R)-3-[[(4-aminophenyl)sulfonyl](isobutyl)amino]-1-benzyl-2-hydroxypropyl]-2-oxo-oxazolidine-S-carboxamide], the “inhibitory activity” value was “relatively small improvement in activities compared to 25a”.
For `COc1cccc(S(=O)(=O)N(CC(C)C)C[C@@H](O)[C@H](Cc2ccccc2)NC(=O)[C@@H]2CN(c3ccccc3)C(=O)O2)c1` [29a, (5S)—N-[(1S,2R)-1-Benzyl-2-hydroxy-3-[isobutyl[(3-methoxyphenyl)sulfonyl]amino]-propyl]-2-oxo-3-phenyloxazolidine-S-carboxamide], the “inhibitory activity” value was “significant loss of protease inhibitory activity”.
With `COc1cccc(S(=O)(=O)N(CC(C)C)C[C@@H](O)[C@H](Cc2ccccc2)NC(=O)[C@@H]2CN(c3ccc(C(C)=O)cc3)C(=O)O2)c1` [29f, (5S)-3-(4-Acetylphenyl)-N-[(1S,2R)-1-benzyl-2-hydroxy-3-[isobutyl[(3-methoxyphenyl)-sulfonyl]amino]propyl]-2-oxo-oxazolidine-S-carboxamide] the “inhibitory activity” value was “significant loss of protease inhibitory activity”.
